This note sets out measurements from patent US20130217646A1, “COMBINATION OF ALOVUDINE AND ZIDOVUDINE IN A MOLAR RATIO OF 1:100 TO 1:350” (MEDIVIR AB, priority 2006, published 2013).

The series deals with MT4 cell line. The settings on record: human, 14 days. The method, then: Several suitable cell lines supporting HIV growth are readily available including lines include those supporting HIV growth including the CEM×174 cell line derived from Swedish Institute for Infectious Disease Control (SMI) Sweden, MT-4 (commercially available) and Hep G2 (commercially available).
In short, 100 ul cells are seeded in a 96-well plate at a concentration of 1×10^4 cells/ml, at exponential growth were cultured in RPMI 1640 medium (from Gibco) supplemented with 10% heat-inactivated fetal bovine serum (from Gibco) and Penicillin-Streptomycin (from Gibco). The medium is changed every 3 or 4 days, and cells are subcultured once a week at a dilution of 1:10. All cultures are routinely checked for Mycoplasma infection and grown at 37° C. in a humidified 5% CO2 atmosphere.
All drugs tested were first dissolved at 10 mM in dimethyl sulfoxide (DMSO) before further dilution to the appropriate concentration in the culture medium. The analysis of mitochondrial DNA was performed by using Taqman technology as previously reported (Zhang, H et al. Mol. Pharmacol 1994 46:1063-1069), with modifications, and is briefly described below.
The cells are treated for a series of durations with the test drugs, such as alovudine, fosalvudine, zidovudine, abacavir etc or various combinations of alovudine/fosalvudine and zidovudine/abacavir. The various ratios indicated in the respective Tables. After 14 days of drug exposure, cells are collected. Total cellular DNA was prepared using the QiAamp DNA blood Mini kit (QIAGEN, Chatsworth, Calif.), following the supplier's instructions for the Qiagene Blood&Body Fluid Spin Protocol, and subject to DNA amplification.
The probes of mitochondrial DNA Taqman and human nuclear DNA were prepared from Applied Biosystems, which employs an internal quenched DNA probe utilizing fluorescence resonance energy transfer (FRET) to generate a spectroscopic response due to 5′->3′ exonuclease activity of Taq DNA polymerase during DNA amplification. […] It is a fully integrated system for real-time detection of PCR using ABI PRISM 7700 and TaqMan reagents for the fluorogenic 5′ nuclease assay.
The cell growth was controlled by cellular nuclear DNA ([…] ribosomal DNA).
The above described assay was performed in the MT4 cell line derived from a T lymphocyte.

Like-named read-outs stand apart in the source and are kept apart here.

In the case of `Nc1nc(NC2CC2)c2ncn([C@H]3C=C[C@@H](CO)C3)c2n1` [abacavir], for the setting “1 uM”, the “Inhibition of mitochondrial DNA, %” value is reported as 18% and the “Mean qty mt DNA” value is 756544. Moreover, under “20 uM”, the “Inhibition of mitochondrial DNA, %” value stood at 51% and the “Mean qty mt DNA” value was 506181.
As for `Cc1cn([C@H]2C[C@H](N=[N+]=[N-])[C@@H](CO)O2)c(=O)[nH]c1=O` [zidovudine, 2′3′-dideoxy-3′-azido-thymidine], the “Inhibition of mitochondrial DNA %” value (1 uM) stood at 0%. The “Inhibition of mitochondrial DNA %” value (3 uM) stood at 0%. For the same molecule, under “10 uM”, the “% Reduction mt/n DNA” value was found to be 0%, the “% reduction mt DNA” value is listed as 0%, the “% reduction n DNA” value was 40% and the “Inhibition of mitochondrial DNA %” value is 0%. Where the note is “10 uM”, the “Ratio Mitochondrial: Nuclear DNA” value came to 0.96, the “Relative no. copies mt DNA” value was 856782 and the “Relative no. copies n DNA” value worked out at 891446. In addition, under “30 uM”, the “% Reduction mt/n DNA” value is given as 0%; the “% reduction mt DNA” value came to 0%; the “% reduction n DNA” value came out at 43%; the “Inhibition of mitochondrial DNA, %” value is 0%. In addition, for the setting “30 uM”, the “Mean qty (mitochondrial DNA)” value is on record as 1410000, the “Ratio Mitochondrial: Nuclear DNA” value is recorded as 1.19, the “Relative no. copies mt DNA” value was determined as 993321 and the “Relative no. copies n DNA” value was determined as 836935. Also, under “60 uM”, the “% Reduction mt/n DNA” value was 0%, the “% reduction mt DNA” value came to 4%, the “% reduction n DNA” value came to 40% and the “Ratio Mitochondrial: Nuclear DNA” value is 0.84. Moreover, under “60 uM”, the “Relative no. copies mt DNA” value came to 748730 and the “Relative no. copies n DNA” value was 890663.
Take `Cc1cn([C@H]2C[C@H](F)[C@@H](CO)O2)c(=O)[nH]c1=O` [alovudine, 2′,3′-dideoxy-3′-fluorothymidine]: for the setting “0.1 uM”, the “% Reduction mt/n DNA” value was 13%, the “% reduction mt DNA” value was determined as 44%, the “% reduction n DNA” value was 35% and the “Inhibition of mitochondrial DNA %” value was 70%. Moreover, where the note is “0.1 uM”, the “Inhibition of mitochondrial DNA, %” value is reported as 40%; the “Mean qty mt DNA” value was found to be 549900; the “Ratio Mitochondrial: Nuclear DNA” value is on record as 0.45; the “Relative no. copies mt DNA” value is 434709. Where the note is “0.1 uM”, the “Relative no. copies n DNA” value is 956331. For the setting “0.2 uM”, the “Inhibition of mitochondrial DNA, %” value amounted to 82% and the “Mean qty mt DNA” value came to 187574. Further, under “0.3 uM”, the “% Reduction mt/n DNA” value was determined as 59%, the “% reduction mt DNA” value is 68%, the “% reduction n DNA” value stood at 22% and the “Inhibition of mitochondrial DNA %” value turned out to be 95%. Moreover, under “0.3 uM”, the “Ratio Mitochondrial: Nuclear DNA” value is on record as 0.21, the “Relative no. copies mt DNA” value is 247481 and the “Relative no. copies n DNA” value is on record as 1160000. For the setting “0.6 uM”, the “% Reduction mt/n DNA” value is 89%, the “% reduction mt DNA” value is listed as 88%, the “% reduction n DNA” value is listed as 0% and the “Ratio Mitochondrial: Nuclear DNA” value is listed as 0.06. Besides, for the setting “0.6 uM”, the “Relative no. copies mt DNA” value came out at 96998 and the “Relative no. copies n DNA” value amounted to 1740000. Besides, under “1 uM”, the “Inhibition of mitochondrial DNA %” value turned out to be 100%.
